# Reference: patent publication US20210369677A1, “SMALL MOLECULE ACTIVATORS OF POLYCYSTIN-2 (PKD2) AND USES THEREOF” (Northwestern University, priority 2020, published 2021)
# System: polycystin-2L1
# Assay type: cell-based
# Settings: for Effect of extracellular reducing agents on polycystin-2L1 current: WT polycystin-2L1
# Description: Electrophysiology. Ciliary ion currents were recorded using borosilicate glass electrodes polished to resistances of 14-22 MΩ using the cilium patch method previously described^32. Whole cell electrodes used to measure poly cystin-2L1 currents were fire polished to 1.5-4 MΩ resistances. Unless otherwise stated, whole cilia ionic currents were recorded in symmetrical [Na^+]. The pipette standard internal solution contained (in mM): 90 NaMES, 10 NaCl, 10 HEPES, 10 Na4-BAPTA (Glycine, N, N′-[1,2-ethanediylbis(oxy-2,1-phenylene)]bis[N-(carboxymethyl)]-,tetrasodium); pH was adjusted to 7.3 using NaOH. Standard bath solution contained 140 NaCl, 10 HEPES, 1.8 CaCl2); pH 7.4. All solutions were osmotically balanced to 295 (±6) mOsm with mannitol. Extracellular solutions containing TCEP and GSH were used within six hours of formulation. Data were collected using an Axopatch 200B patch clamp amplifier, Digidata 1440A, and pClamp 10 software. Whole-cilium and excised patch currents were digitized at 25 kHz and low-pass filtered at 10 kHz. In the whole cilium configuration, the holding potential was −60 mV and then depolarized using a 400 ms voltage ramp from −100 mV to 100 mV. The whole cell recordings of polycystin-2L1 currents were either activated by the same ramp protocol or by 100 ms depolarizations to 100 mV from a −100 mV holding potential. External conditions were controlled using a Warner Perfusion Fast-Step (SF-77B) system in which the patched cilia and electrode were held in the perfusate stream. Data were analyzed by Igor Pro 7.00 (Wavemetrics, Lake Oswego, Oreg.). The polycystin-2 open probability and the polycystin-2L1 tail current-voltage relationships were fit to a Boltzmann function, f(x)=1/(1+exp[V−V1/2]/k) to estimate voltage of half-maximal activation of current (V1/2).
smiles,measurement,setting,value
"O=C(O)CCP(CCC(=O)O)CCC(=O)O [TCEP, tris-2-carboxyethyl phosphine]",Effect of extracellular reducing agents on polycystin-2L1 current,,near complete loss of current
[Gd] [gadolinium],Block of polycystin-2L1 currents by trivalent ions,"10 μM, plasma membrane of HEK cells",blocked
"N[C@@H](CCC(=O)N[C@@H](CS)C(=O)NCC(=O)O)C(=O)O [GSH, reduced glutathione]",Effect of extracellular reducing agents on polycystin-2L1 current,,near complete loss of current
